{"source": "patent US11040053B2", "about": "“Compositions and methods for activating “stimulator of interferon gene”13 dependent signalling” (CHINOOK THERAPEUTICS, INC., priority 2015, dated 2021)", "key": {"B16.SIY cells": {"tested_on": "B16.SIY cells", "assay": "B16.SIY melanoma mouse model, intra-tumoral injection", "format": "in vivo, C57BL/6 mice", "description": "To determine whether the derivative molecules elicit anti-tumor immunity, 6-8 week old female C57BL/6 mice (8 mice per group) were implanted with B16.SIY cells (5×10^5 cells in 100 μL PBS). Mice were treated with reference compound 3′3′-RR-(A)(A) and di-F compound 3′3′-RR-(2′F-A)(2′F-A) (5, 50, 100 μg in a total volume of 40 μL HBSS), or HBSS vehicle control. Treatments began when tumors reached a volume of approximately 100 mm^3, on day 9 post tumor implantation. The CDN compounds were administered by […] injection into the center of the tumor (IT) using a 27 gauge needle. Mice were bled on day 16 post tumor implantation and PBMCs were isolated by Ficoll gradient (Miltenyi Biotech). 1×10^5 PBMCs were pre-incubated with anti-CD16/32 monoclonal antibody to block potential nonspecific binding, and labeled with PE-MHC class I pentamer (Proimmune) consisting of murine H-2Kb complexed to […] (SIY, SEQ ID NO: 16) peptide, anti-TCRβ-AF700 (H57-597), anti-CD8-Pacific Blue (53-6.7), anti-CD4-Pacific Orange (RM4-5) (all antibodies from BioLegend) and the Fixable Viability Dye eFluor 450 (eBioscience). Stained cells were analyzed using FACS Versa cytometer with FACSDiva software (BD). Data analysis was conducted with FlowJo software (Tree Star)."}, "[1]": {"molecular_target": "T1, human-STING(E149-S379)H232R protein (Homo sapiens, UniProt Q86WV6, H232R)", "T1 construct": "His6 (C); made in house; host or cells: E. coli", "T1 sequence (Q86WV6 with tags, fused parts or gaps H232R)": "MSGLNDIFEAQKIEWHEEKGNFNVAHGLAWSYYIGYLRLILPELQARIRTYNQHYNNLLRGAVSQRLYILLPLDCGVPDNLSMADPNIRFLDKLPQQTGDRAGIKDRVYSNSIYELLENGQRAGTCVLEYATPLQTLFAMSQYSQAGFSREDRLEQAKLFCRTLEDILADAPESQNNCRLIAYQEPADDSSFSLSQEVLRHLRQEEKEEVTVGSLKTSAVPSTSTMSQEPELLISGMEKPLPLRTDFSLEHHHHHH", "assay": "Surface Plasmon Resonance binding to hSTING WT", "conditions": "Biacore T200, 15° C., steady-state analysis", "description": "Binding of the mono- and di-F CDN compounds was assessed using Surface Plasmon Resononce to determine a binding constant. An E. coli expression construct (human-STING[E149-S379]H232R) was prepared harboring the protein sequence:\nAliquots were prepared and stored at −80° C. in 30 mM Tris pH 7.5/100 mM NaCl/10% glycerol.\nN-terminal avi-tagged human-STING(E149-S379)H232R protein was immobilized (2500 RUs) on a streptavidin chip at 15° C. in a Biacore T200 (GE Healthcare). Titrations of cyclic dinucleotides (CDNs as indicated in Table 6) in 30 mM Tris pH 7.5/50 mM NaCL/0.005% Tween 20/1 mM DTT/2% DMSO, were profiled (30 μLs/min, 180 seconds for sample contact/120 seconds for dissociation) against hSTING at 15° C. Kinetic analysis of the data was performed using Biacore T200 Evaluation software. Steady-state analysis of the data was performed using Graphpad Prism 6.0 software, using one site-specific binding algorithm (Equation is Y=Bmax*X/(Kd+X))."}}, "data": [{"smiles": "Nc1ncnc2c1ncn2[C@@H]1O[C@@H]2CO[P@@](=O)(S)O[C@H]3[C@@H](F)[C@H](n4cnc5c(N)ncnc54)O[C@@H]3CO[P@@](=O)(S)O[C@H]2[C@H]1F", "note": "[Compound 6, (2R,3R,3aR,5R,7aR,9R,10R,10aR,12R,14aR)-2,9-bis(6-amino-9H-purin-9-yl)-3,10-difluoro-5,12-dimercaptooctahydro-2H,7H-difuro[3,2-d:3′,2′-j][1,3,7,9]tetraoxa[2,8]diphosphacyclododecine 5,12-dioxide]", "values": [{"measurement": "tumor volume / tumor growth, in words", "setting": "B16.SIY cells; FIG. 14A, IT injection 5, 50, 100 μg, established B16-SIY melanomas", "result": "rejected the growth of established B16-SIY melanomas at all doses"}, {"measurement": "percent of SIY-specific CD8+ T cells in PBMCs, in words", "setting": "B16.SIY cells; FIG. 14B, 5 μg IT, day 7 post-IT injection, vs HBSS control", "result": "elicited significantly SIY-specific CD8^+ T cells"}, {"measurement": "Kd", "setting": "[1]", "result": 1, "unit": "nM"}]}]}
